Measured values taken from patent US11655239B2 (SHANGHAI INSTITUTE OF MATERIAL MEDICA, CHINESE ACADEMY OF …, priority 2019, dated 2023).

What follows are compounds tested on pulmonary fibrosis induced by bleomycin in mice (assay: mRNA levels of fibrosis-related markers in lung tissue (qRT-PCR)). Conditions: 30 mg/kg.
Assay type: in vivo, mouse
Method: About 30 mg of cryopreserved lung tissue was weighed and homogenized and lysed by adding 200 μL of Trizol (Takara, 9109 #). The fluid after the lysis in the well was collected by the RNA sterilization-grade pipette tip and transferred to the corresponding sterile EP tube. […] of chloroform was added, shaken vigorously for 30 sec, and centrifuged for 15 minutes in a centrifuge at 4° C. at 12000 rpm. The upper aqueous layer was transferred to a new EP tube, an equal volume of isopropanol was used to precipitate the RNA in the aqueous phase, and the tube was allowed to stand at −20° C. for more than 1 hr. And then the tube was centrifuged for 15 min at 4° C. at 12000 rpm, and the supernatant was discarded. 75% ethanol was added to wash the RNA pellet, and then the tube was centrifuged for 15 min at 4° C. at 12000 rpm, and the supernatant was discarded. The tube was placed at room temperature for 10-20 min to dry the RNA pellet. 25-200 μL of RNase-free water was added for dissolution and stored at −80° C.
PrimeScript™ RT Master Mix (Takara, RR036A) was selected for mRNA reverse transcription. Please refer to the instructions for the system. In short, 1 μg of mRNA was added to a 20 μL system, mixed and then kept at a constant temperature in a 37° C. water bath for 15 minutes, and then the enzyme was inactivated at 85° C. for 5 seconds. After centrifugation, double distilled water was used to dilute 10 times.
Q-PCR technology used 2×SYBR Green qPCR Master Mix (B21202, Biomake), and the reaction system could be prepared according to the instruction (10 μL of 2×SYBGreen, 8.8 μL of cDNA template, 1.2 μL of 5 μM primer Mix). The reaction conditions are: pre-denaturation at 95° C. for 5 min, denaturation at 95° C. for 30 sec, annealing at 60° C. for 30 sec, and extension at 72° C. for 30 sec, the number of reaction cycles is 40 cycles.
The experiment used qRT-PCR technology to determine the mRNA levels of fibrosis-related markers in lung tissue.
The experimental method was the same as that for the evaluation of the mRNA levels of inflammatory cytokines.

| Structure (SMILES) | reduction of expression (mRNA) of Collagen1-α1 | reduction of expression (mRNA) of TGF-β1 | reduction of expression (mRNA) of α-SMA |
| --- | --- | --- | --- |
| Cc1ccc([C@H](C)NC(=O)c2cccc(C(F)(F)F)c2)cc1-c1ccc2nc(Nc3cnn(C4CC4)c3)ncc2c1 [Compound S11-A] | about 50% | about 50% | about 50% |

The compounds below were run against DDR2 (Homo sapiens (Human), UniProt Q16832) (assay: DDR2 enzyme activity test (ELISA)). Conditions: Table 3, chiral synthesis vs resolution; read-out: Molecular activity comparison (inhibitory activity against DDR2 enzyme).
Chain of DDR2 (Q16832 563-849): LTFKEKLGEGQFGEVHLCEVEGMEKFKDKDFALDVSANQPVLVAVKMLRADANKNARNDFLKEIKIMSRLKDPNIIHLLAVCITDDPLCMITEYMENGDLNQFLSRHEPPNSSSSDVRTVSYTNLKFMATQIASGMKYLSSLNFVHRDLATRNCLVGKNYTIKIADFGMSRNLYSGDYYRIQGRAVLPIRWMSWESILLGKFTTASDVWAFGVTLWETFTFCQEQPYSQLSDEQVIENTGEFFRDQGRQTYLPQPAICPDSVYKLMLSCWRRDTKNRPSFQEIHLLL
Assay type: biochemical
Method: The optical rotation and the inhibitory activity against DDR2 enzyme of the compounds S11-A and S11-B obtained by the resolution in Example 12, and the chirally synthesized compounds S11-A′ and S11-B′ in Example 13 were tested (referred to the operation in Effect example 1), and the results are shown in Table 3 below:
Detection method: Enzyme-linked immunosorbent assay (ELISA)
Test receptor tyrosine kinase: DDR2
The kinase used in the experiment was obtained by our laboratory using the insect baculovirus expression system to express and purify the recombinant protein containing the protein kinase region; polyglutamic acid-tyrosine peptide segment [Poly(Glu, Tyr) 4:1] and sodium vanadate were purchased from Sigma; the anti-phosphorylated monoclonal antibody PY99 was purchased from Santa Cruz; horseradish peroxidase labeled goat anti-murine secondary antibody was purchased from Calbiochem; ATP and OPD were purchased from Sangon Biotech (Shanghai) Co., Ltd.; the remaining reagents were purchased from Sinopharm Chemical Reagent Co., Ltd. The reaction ELISA plate (#2592) was purchased from Corning. The full-wavelength microplate reader for experiment reading was a product of Molecular Device, model: SpectraMax 190; the experimental water was distilled water produced by Sinopharm Group.
The compound was centrifuged at 12,000 g for 5 min, and DMSO was added to prepare a 10^-2M stock solution, which was vortexed evenly, then sonicated for 10 min and stored at −40° C. for later use. During the test, the compound was diluted with DMSO from the stock solution to 100 times the test concentration (the DMSO concentration in the system was 1%).
1) Enzyme reaction substrate Poly(Glu, Tyr) 4:1 was diluted to 20 μg/mL with potassium-free PBS (10 mM sodium phosphate buffer, 150 mM NaCl, pH 7.2-7.4), and the microtiter plate was coated with 125 μL/well and placed at 37° C. for 12-16 hours of reaction. The liquid in the well was discard. The plate was washed three times with T-PBS (potassium-free PBS containing 0.1% Tween-20, 200 μL/well), 5 minutes each time. The ELISA plate was dried in an oven at 37° C. for 1 to 2 hours.
2) Reaction buffer (50 mM HEPES pH 7.4, 50 mM MgCl2, 0.5 mM MnCl2, 0.2 mM Na3VO4, 1 mM DTT) diluted ATP solution (49 μL) was added to each well, 1 μL of the compound to be tested was added to each well, and then 50 μL of DDR2 kinase domain recombinant protein diluted in the reaction buffer was added to start the reaction. Two control wells without ATP were set in each experiment. The plate placed on a shaker (100 rpm) at 37° C. for 1 hour of reaction. The liquid in the well was discarded and the plate was washed three times with T-PBS.
3) Antibody PY99 dilution solution (the antibody was diluted 1:500 with T-PBS containing BSA 5 mg/mL) was added at 100 μL/well, and shaken on a shaker at 37° C. for 0.5 hour of reaction. The liquid in the well was discarded and the plate was washed three times with T-PBS.
4) Horseradish peroxidase labeled goat anti-murine secondary antibody dilution solution (the antibody is diluted 1:2000 with T-PBS containing BSA 5 mg/ml) was added at 100 μL/well, and shaken on a shaker at 37° C. for 0.5 hour of reaction. The liquid in the well was discarded and the plate was washed three times with T-PBS.
5) 2 mg/ml of OPD color developing solution [diluted with 0.1 M citric acid-sodium citrate buffer (pH=5.4) containing 0.03% H2O2] was added at 100 μL/well and reacted for 1 to 10 minutes at 25° C. in the dark.
6) 2M H2SO4 was added at 50 μL/well to stop the reaction, and a tunable wavelength microplate reader VERSAmax was used for reading at a wavelength of 490 nm.
The IC50 value was obtained by four-parameter regression using the software that came with the microplate reader.

| IC50 | Structure (SMILES) |
| --- | --- |
| 5 ± 0.1 nM | Cc1ccc([C@H](C)NC(=O)c2cccc(C(F)(F)F)c2)cc1-c1ccc2nc(Nc3cnn(C4CC4)c3)ncc2c1 [Compound S11-A] |
| 14.4 ± 2.1 nM | Cc1ccc([C@@H](C)NC(=O)c2cccc(C(F)(F)F)c2)cc1-c1ccc2nc(Nc3cnn(C4CC4)c3)ncc2c1 [Compound S11-B] |

Same assay, conditions: read-out: DDR2 IC50

| Structure (SMILES) | IC50 |
| --- | --- |
| Cc1ccc(NC(=O)Nc2cccc(C(F)(F)F)c2)cc1-c1ccc2nc(Nc3cnn(C)c3)ncc2c1 [Compound S1, 1-(4-methyl-3-(2-((1-methyl-1H-pyrazol-4-yl)amino)quinazolin-6-yl)phenyl)-3-(3-(trifluoromethyl)phenyl)urea] | 6.6 ± 0.4 nM |
| Cc1ccc(NC(=O)C(C)c2cccc(C(F)(F)F)c2)cc1-c1ccc2nc(Nc3cnn(C)c3)ncc2c1 (centres unmarked) [Compound S8, N-(4-methyl-3-(2-((1-methyl-1H-pyrazol-4-yl)amino)quinazolin-6-yl)phenyl)-2-(3-(trifluoromethyl)phenyl)propionamide] | 2.2 ± 0.2 nM |
| CC(C)c1ccc(C(=O)Nc2cccc(C(F)(F)F)c2)cc1-c1ccc2nc(Nc3cnn(C)c3)ncc2c1 [Compound S13, 4-isopropyl-3-(2-((1-methyl-1H-pyrazol-4-yl)amino)quinazolin-6-yl)-N-(3-(trifluoromethyl)phenyl)benzamide] | 5.4 ± 0.4 nM |
| CCC(NC(=O)c1cccc(C(F)(F)F)c1)c1ccc(C)c(-c2ccc3nc(Nc4cnn(C)c4)ncc3c2)c1 (centres unmarked) [Compound S6, N-(1-(4-methyl-3-(2-((1-methyl-1H-pyrazol-4-yl)amino)quinazolin-6-yl)phenyl)propyl)-3-(trifluoromethyl)benzamide] | 5 ± 0.5 nM |
| Cc1ccc(NC(=O)Nc2cc(C(C)(C)C)nn2-c2ccccc2)cc1-c1ccc2nc(Nc3cnn(C)c3)ncc2c1 [Compound S2, 1-(3-(tert-butyl)-1-phenyl-1H-pyrazol-5-yl)-3-(4-methyl-3-(2-((1-methyl-1H-pyrazol-4-yl)amino)quinazolin-6-yl)phenyl)urea] | 9.7 ± 0.6 nM |
| CC(C(=O)Nc1ccc(C2CC2)c(-c2ccc3nc(Nc4cnn(C5CC5)c4)ncc3c2)c1)c1cccc(C(F)(F)F)c1 (centres unmarked) [Compound S17, N-(4-cyclopropyl-3-(2-((1-cyclopropyl-1H-pyrazol-4-yl)amino)quinazolin-6-yl)phenyl)-2-(3-(trifluoromethyl)phenyl)propionamide] | 1.7 ± 0.3 nM |
| Cn1cc(Nc2ncc3cc(-c4cc(C(=O)Nc5cccc(C(F)(F)F)c5)ccc4C4CC4)ccc3n2)cn1 [Compound S14, 4-cyclopropyl-3-(2-((1-methyl-1H-pyrazol-4-yl)amino)quinazolin-6-yl)-N-(3-(trifluoromethyl)phenyl)benzamide] | 4.3 ± 0.7 nM |
| Cc1ccc(C(=O)NCc2cccc(C(F)(F)F)c2)cc1-c1ccc2nc(Nc3cnn(C)c3)ncc2c1 [Compound S7, 4-methyl-3-(2-((1-methyl-1H-pyrazol-4-yl)amino)quinazolin-6-yl)-N-(3-(trifluoromethyl)benzyl)benzamide] | 1.3 ± 0.2 nM |

Second part, the compound after the results:

| IC50 | Structure (SMILES) |
| --- | --- |
| 4.1 ± 0.1 nM | Cc1ccc(C(C)NC(=O)c2cccc(C(F)(F)F)c2)cc1-c1ccc2cnc(Nc3cnn(C)c3)nc2c1 (centres unmarked) [Compound S4, N-(1-(4-methyl-3-(2-((1-methyl-1H-pyrazol-4-yl)amino)quinazolin-7-yl)phenyl)ethyl)-3-(Trifluoromethyl)benzamide] |
| 8.7 ± 1.1 nM | Cc1ccc(C(C)NC(=O)Nc2cccc(C(F)(F)F)c2)cc1-c1ccc2nc(Nc3cnn(C)c3)ncc2c1 (centres unmarked) [Compound S27, 1-(1-(4-methyl-3-(2-((1-methyl-1H-pyrazol-4-yl)amino)quinazolin-6-yl)phenyl)ethyl)-3-(3-(trifluoromethyl)phenyl)urea] |
| 2.9 ± 0.8 nM | Cc1ccc(C(=O)NC(C)c2cccc(C(F)(F)F)c2)cc1-c1ccc2nc(Nc3cnn(C)c3)ncc2c1 (centres unmarked) [Compound S5, 4-Methyl-3-(2-((1-methyl-1H-pyrazol-4-yl)amino)quinazolin-6-yl)-N-(1-(3-(trifluoromethyl)phenyl)ethyl)benzamide] |
| 2.7 ± 0.1 nM | Cc1ccc(C(C)C(=O)Nc2cccc(C(F)(F)F)c2)cc1-c1ccc2nc(Nc3cnn(C4CC4)c3)ncc2c1 (centres unmarked) [Compound S9, 2-(3-(2-((1-cyclopropyl-1H-pyrazol-4-yl)amino)quinazolin-6-yl)-4-methylphenyl)-N-(3-(trifluoromethyl)phenyl)propionamide] |
| 13.5 ± 7.2 nM | C[C@@H](NC(=O)c1ccc(C2CC2)c(-c2ccc3cnc(Nc4cnn(C5CC5)c4)nc3c2)c1)c1cccc(C(F)(F)F)c1 [Compound S37] |
| 5.6 ± 0.3 nM | Cc1ccc(C(C)NC(=O)c2cccc(C(C)(C)C#N)c2)cc1-c1ccc2nc(Nc3cnn(C4CC4)c3)ncc2c1 (centres unmarked) [Compound S20, 3-(2-cyanopropane-2-yl)-N-(1-(3-(2-((1-cyclopropyl-1H-pyrazol-4-yl)amino)quinazolin-6-yl)-4-methylphenyl)ethyl)benzamide] |

Same assay, conditions: read-out: DDR2 Inhibition rate at 0.1 μM

| inhibition at 0.1 µM | Structure (SMILES) |
| --- | --- |
| 68.4% | CC(NC(=O)c1ccc(C2CC2)c(-c2ccc3nc(Nc4cnn(C5CC5)c4)ncc3c2)c1)c1cc(C(F)(F)F)ccn1 (centres unmarked) [Compound S45] |
| 72.9% | Cc1nc(C(C)NC(=O)c2ccc(C3CC3)c(-c3ccc4nc(Nc5cnn(C6CC6)c5)ncc4c3)c2)cs1 (centres unmarked) [Compound S44] |
| 57.6% | CCN1CCN(Cc2cc(C(C)NC(=O)c3ccc(C4CC4)c(-c4ccc5nc(Nc6cnn(C7CC7)c6)ncc5c4)c3)cc(C(F)(F)F)c2)CC1 (centres unmarked) [Compound S43] |
| 47.7% | O=C(NC1CCc2c1cccc2C(F)(F)F)c1ccc(C2CC2)c(-c2ccc3nc(Nc4cnn(C5CC5)c4)ncc3c2)c1 (centres unmarked) [Compound S46] |
